Laboratory results reported in PMC5817852 (The Open Medicinal Chemistry Journal, 2018).
Where two headings read alike, the source gives them in different places.

Legend:
[1] = test system: RAJI cells (Burkitt's leukaemia/lymphoma); experiment: Additional cancer cell line panel, RAJI; assay type: cell-based; details: confidence intervals in parentheses, NA: not active
[2] = test system: PC3 prostate cancer cell line; experiment: qHTS cell viability screen (Cell Titer Glo), PC3; assay type: cell-based; details: for CC50: PC3 prostate, 72 hours, cell viability Cell Titer Glo, read-out: CC50 PC3
[3] = BJ cell cytotoxicity counter screen; details: human, BJ cells (normal human foreskin fibroblast cell line)
From the text: (§1) Most analogs in the presented series are lipophilic while also containing a positively charged amine. Lipophilic basic amines can accumulate in cell membranes if their lipophilic atom groups form favorable non-polar contacts with lipid chains while their charged amine is interacting with fatty acid head groups. Such association with lipids can lead to cytotoxicity through membrane destabilization. Therefore, we evaluated a number of representative compounds against BJ cells, a normal human foreskin fibroblast cell line, where cytotoxicity was determined at 10 µM drug concentration, as described previously.
(§2) minimum locked at 0 and 100 respectively.
(§3) children with ALL in relapse.
(§4) foreskin fibroblast cell line (BJ).
(§5) Table 2. […] SSA: Sulindac sulfide

[4] = test system: Cell line 697 (ALL in relapse); experiment: Additional cancer cell line panel, 697; assay type: cell-based, human; details: confidence intervals in parentheses, NA: not active
From the text: as §1, §2, §3, §4, §5

[5] = test system: MDA-MB-231 breast cancer cell line; experiment: qHTS cell viability screen (Cell Titer Glo), MDA-MB-231; assay type: cell-based
[6] = test system: Acute T cell leukemia Jurkat e6-1 cells (JURKT); experiment: Additional cancer cell line panel, JURKT; assay type: cell-based; details: confidence intervals in parentheses, NA: not active
[7] = test system: REH cells (precursor B-cell ALL); experiment: Additional cancer cell line panel, REH; assay type: cell-based, human; details: confidence intervals in parentheses, NA: not active, read-out: EC50 REH
[8] = test system: HT29 colorectal carcinoma; experiment: qHTS cell viability screen (Cell Titer Glo), HT29; assay type: cell-based
[9] = test system: NALM16 cell line (acute lymphoblastic leukemia); experiment: Additional cancer cell line panel, NALM16; assay type: cell-based, human; details: confidence intervals in parentheses, NA: not active
[10] = test system: BJ cells, normal human foreskin fibroblast cell line; experiment: BJ cell cytotoxicity counter screen
From the text: as §1, §2, §3, §4, §5

COX-2 = test system: COX-2; set-up: method as in PMID 19470791; details: cited from earlier work
COX-1 = test system: COX-1; set-up: method as in PMID 19470791; details: cited from earlier work
[11] = Homo sapiens, MDA-MB-231, 96 h, MDA-MB-231 breast, 96 hours, cell viability Cell Titer Glo, read-out: CC50 MDA-MB-231
[12] = MDA-MB-231 breast, 96 hours, cell viability Cell Titer Glo, read-out: CC50 MDA-MB-231
[13] = Homo sapiens, HT-29, 72 h, HT29 colorectal carcinoma, 72 hours, cell viability Cell Titer Glo, read-out: CC50 HT29
[14] = read-out: EC50 BJ (cytotoxicity), BJ normal human foreskin fibroblasts, confidence intervals in parentheses

| Compound | CC50 ([2]; 72 h) | CC50 [2] | EC50 [3] | CC50 [5, 11] | CC50 [5, 12] | EC50 ([7]; Homo sapiens, REH) | CC50 [8, 13] | EC50 [9] | further results |
| --- | --- | --- | --- | --- | --- | --- | --- | --- | --- |
| CSc1ccc(/C=C2/C(C)=C(CNC(=O)[C@@H](N)C(C)C)c3cc(F)ccc32)cc1 [Compound 24] | < 10 µM | 5.16 ± 0.5 µM | 16.7 µM | < 10 µM | 6.81 ± 0.63 µM | 14 µM | – | – | EC50 ([1]; Homo sapiens, Raji): 39 µM; melting point: 133 to 135 °C; EC50 ([4]; Homo sapiens): 16 µM; EC50 ([6]; Homo sapiens, Jurkat E6.1): 15 µM |
| COc1cc(/C=C2/C(C)=C(CNC(=O)[C@@H](N)CO)c3cc(F)ccc32)cc(OC)c1OC [Compound 30] | 26.5 ± 6.01 µM | – | > 22.7 µM | 11.9 ± 2.27 µM | – | 53 µM | 11.1 ± 1.35 µM | – | melting point: 118 to 120 °C |
| CSc1ccc(/C=C2/C(C)=C(CNC(=O)[C@@H](N)CC(C)C)c3cc(F)ccc32)cc1 [Compound 23] | < 10 µM | 6.21 ± 0.49 µM | 16.4 µM | < 10 µM | 6.7 ± 0.71 µM | 16 µM | – | – | EC50 ([9]; Homo sapiens, NALM16): 30 µM |
| COc1cc(/C=C2/C(C)=C(CNC(=O)CN)c3cc(F)ccc32)cc(OC)c1OC [Compound 29] | – | 17.9 ± 2.08 µM | – | – | 9.92 ± 2.13 µM | – | – | 230 µM | EC50 [10, 14]: > 22.7 µM; CC50 ([8]; HT29 colorectal carcinoma, 72 hours, cell viability Cell Titer Glo, read-out: CC50 HT29): 8.51 ± 1.7 µM |
| 3,4,5-trimethoxybenzylidene-3-indenylmethyl-2-phenylacetamide [Compound 26] | – | – | – | – | – | – | – | 8.1 µM | EC50 [1]: 8.3 µM; increased anticancer activity in comparison with SSA, prostate cancer cells ([2]; versus SSA): 6-7 fold; EC50 [10, 14]: > 22.7 µM; EC50 [4]: 15 µM; increased anticancer activity in comparison with SSA, breast cancer cells ([5]; versus SSA): 27 fold; EC50 [6]: 11 µM; increased anticancer activity in comparison with SSA, colon cancer cells ([8]; versus SSA): 6-7 fold; EC50 [7]: 19 µM |
| CSc1ccc(/C=C2/C(C)=C(CN(Cc3ccncc3)Cc3ccncc3)c3cc(F)ccc32)cc1 [Compound 49] | – | 12.7 ± 1.44 µM | – | – | – | – | – | 0.051 µM | EC50 [10]: > 22.7 µM; CC50 [5]: 9.5 ± 2.14 µM; CC50 [8]: 10.8 ± 1.84 µM |
| CSc1ccc(/C=C2/C(C)=C(CC(=O)NCCN(C)C)c3cc(F)ccc32)cc1 [SSA, Sulindac sulfide amide, reference compound] | 3.12 ± 0.15 µM | – | – | 2.67 ± 0.08 µM | – | – | 0.65 ± 0.03 µM | – | EC50 [10, 14]: > 7.57 µM; activity against COX-2 (COX-2): no activity; activity against COX-1 (COX-1): no activity |
| COc1cc(/C=C2/C(C)=C(CN(Cc3ccncc3)Cc3ccncc3)c3cc(F)ccc32)cc(OC)c1OC [Compound 56] | – | 9.09 ± 0.87 µM | – | – | – | – | – | 32 µM | EC50 [1]: 58 µM; EC50 [10]: > 22.7 µM; EC50 [7]: 32 µM |
| COc1cc(/C=C2/C(C)=C(CNC(=O)[C@@H](N)C(C)C)c3cc(F)ccc32)cc(OC)c1OC [Compound 32] | < 10 µM | 8.11 ± 0.41 µM | > 22.7 µM | < 10 µM | 7.3 ± 0.73 µM | 21 µM | – | – | EC50 ([1]; Homo sapiens, Raji): 110 µM |
| CSc1ccc(/C=C2/C(C)=C(CNC(=O)[C@@H]3CCCN3)c3cc(F)ccc32)cc1 [Compound 25] | 6.66 ± 0.42 µM | – | > 22.7 µM | 4.35 ± 0.19 µM | – | 150 µM | 3.15 ± 0.17 µM | – | – |
| COc1cc(/C=C2/C(C)=C(CNC(=O)[C@@H]3CCCN3)c3cc(F)ccc32)cc(OC)c1OC [Compound 33] | 11.9 ± 1.56 µM | – | > 22.7 µM | 8.2 ± 0.99 µM | – | 38 µM | 5.67 ± 1.67 µM | – | melting point: 64 to 66 °C; EC50 ([6]; Homo sapiens, Jurkat E6.1): 33 µM |
